Read-outs that look alike come from different tables or passages of the source.
How the values were obtained:
Type in all cases: cell-based
Human Cav 2.2 channels = Human Cav 2.2 channels (Homo sapiens, UniProt Q00975); assay: Fluorescent assay for CaV2.2 channels using potassium depolarization (VIPR/FLIPR); settings: FLIPR data; for CAv2.2 IC50 Ratio closed/inact.: ratio closed/inactivated IC50
How it was run: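 Fluo-4 calcium fluorescence (480/535 nm) was recorded on VIPR or FLIPR after depolarization to 70 mM final potassium. Before this, cells were preincubated 30 min at 25 °C with compound in 4–30 mM potassium, so that state-dependent block could be assessed; the cells were HEK293 coexpressing Cav2.2, α2δ, β and Kir2.3.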

T-type calcium channel [1] = molecular target: T-type calcium channel (Homo sapiens, UniProt O95180); assay: T-type channel blocking, FLIPR data (Table 6); settings: for CAv3.2 IC50 Ratio closed/inact.: CAv3.2, ratio closed/inactivated IC50
Text: (§1) Another method, high-throughput spectrophotometric assay, utilizes loading of the cell lines with a fluorescent dye sensitive to intracellular calcium concentration and subsequent examination of the effects of compounds on the ability of depolarization by potassium chloride or other means to alter intracellular calcium levels.

T-type calcium channel [2] = molecular target: T-type calcium channel (Homo sapiens, UniProt O43497); assay: T-type channel blocking, FLIPR data (Table 6); settings: CAv3.1
Text: as §1

CAv1.2 = CAv1.2 (Homo sapiens, UniProt Q13936); assay: FLIPR data, CAv1.2 channel blocking (Table 6); settings: for CAv1.2 IC50 Ratio closed/inact.: ratio closed/inactivated IC50
[3] = closed state, read-out: CAv2.2 IC50 Closed
[4] = inactivated state, read-out: CAv2.2 IC50 Inact.
[5] = CAv3.2, closed state, read-out: CAv3.2 IC50 Closed
[6] = CAv3.2, inactivated state, read-out: CAv3.2 IC50 Inact.
[7] = closed state, read-out: CAv1.2 IC50 Closed
[8] = inactivated state, read-out: CAv1.2 IC50 Inact.

Sequence of Human Cav 2.2 channels (Q00975 whole entry): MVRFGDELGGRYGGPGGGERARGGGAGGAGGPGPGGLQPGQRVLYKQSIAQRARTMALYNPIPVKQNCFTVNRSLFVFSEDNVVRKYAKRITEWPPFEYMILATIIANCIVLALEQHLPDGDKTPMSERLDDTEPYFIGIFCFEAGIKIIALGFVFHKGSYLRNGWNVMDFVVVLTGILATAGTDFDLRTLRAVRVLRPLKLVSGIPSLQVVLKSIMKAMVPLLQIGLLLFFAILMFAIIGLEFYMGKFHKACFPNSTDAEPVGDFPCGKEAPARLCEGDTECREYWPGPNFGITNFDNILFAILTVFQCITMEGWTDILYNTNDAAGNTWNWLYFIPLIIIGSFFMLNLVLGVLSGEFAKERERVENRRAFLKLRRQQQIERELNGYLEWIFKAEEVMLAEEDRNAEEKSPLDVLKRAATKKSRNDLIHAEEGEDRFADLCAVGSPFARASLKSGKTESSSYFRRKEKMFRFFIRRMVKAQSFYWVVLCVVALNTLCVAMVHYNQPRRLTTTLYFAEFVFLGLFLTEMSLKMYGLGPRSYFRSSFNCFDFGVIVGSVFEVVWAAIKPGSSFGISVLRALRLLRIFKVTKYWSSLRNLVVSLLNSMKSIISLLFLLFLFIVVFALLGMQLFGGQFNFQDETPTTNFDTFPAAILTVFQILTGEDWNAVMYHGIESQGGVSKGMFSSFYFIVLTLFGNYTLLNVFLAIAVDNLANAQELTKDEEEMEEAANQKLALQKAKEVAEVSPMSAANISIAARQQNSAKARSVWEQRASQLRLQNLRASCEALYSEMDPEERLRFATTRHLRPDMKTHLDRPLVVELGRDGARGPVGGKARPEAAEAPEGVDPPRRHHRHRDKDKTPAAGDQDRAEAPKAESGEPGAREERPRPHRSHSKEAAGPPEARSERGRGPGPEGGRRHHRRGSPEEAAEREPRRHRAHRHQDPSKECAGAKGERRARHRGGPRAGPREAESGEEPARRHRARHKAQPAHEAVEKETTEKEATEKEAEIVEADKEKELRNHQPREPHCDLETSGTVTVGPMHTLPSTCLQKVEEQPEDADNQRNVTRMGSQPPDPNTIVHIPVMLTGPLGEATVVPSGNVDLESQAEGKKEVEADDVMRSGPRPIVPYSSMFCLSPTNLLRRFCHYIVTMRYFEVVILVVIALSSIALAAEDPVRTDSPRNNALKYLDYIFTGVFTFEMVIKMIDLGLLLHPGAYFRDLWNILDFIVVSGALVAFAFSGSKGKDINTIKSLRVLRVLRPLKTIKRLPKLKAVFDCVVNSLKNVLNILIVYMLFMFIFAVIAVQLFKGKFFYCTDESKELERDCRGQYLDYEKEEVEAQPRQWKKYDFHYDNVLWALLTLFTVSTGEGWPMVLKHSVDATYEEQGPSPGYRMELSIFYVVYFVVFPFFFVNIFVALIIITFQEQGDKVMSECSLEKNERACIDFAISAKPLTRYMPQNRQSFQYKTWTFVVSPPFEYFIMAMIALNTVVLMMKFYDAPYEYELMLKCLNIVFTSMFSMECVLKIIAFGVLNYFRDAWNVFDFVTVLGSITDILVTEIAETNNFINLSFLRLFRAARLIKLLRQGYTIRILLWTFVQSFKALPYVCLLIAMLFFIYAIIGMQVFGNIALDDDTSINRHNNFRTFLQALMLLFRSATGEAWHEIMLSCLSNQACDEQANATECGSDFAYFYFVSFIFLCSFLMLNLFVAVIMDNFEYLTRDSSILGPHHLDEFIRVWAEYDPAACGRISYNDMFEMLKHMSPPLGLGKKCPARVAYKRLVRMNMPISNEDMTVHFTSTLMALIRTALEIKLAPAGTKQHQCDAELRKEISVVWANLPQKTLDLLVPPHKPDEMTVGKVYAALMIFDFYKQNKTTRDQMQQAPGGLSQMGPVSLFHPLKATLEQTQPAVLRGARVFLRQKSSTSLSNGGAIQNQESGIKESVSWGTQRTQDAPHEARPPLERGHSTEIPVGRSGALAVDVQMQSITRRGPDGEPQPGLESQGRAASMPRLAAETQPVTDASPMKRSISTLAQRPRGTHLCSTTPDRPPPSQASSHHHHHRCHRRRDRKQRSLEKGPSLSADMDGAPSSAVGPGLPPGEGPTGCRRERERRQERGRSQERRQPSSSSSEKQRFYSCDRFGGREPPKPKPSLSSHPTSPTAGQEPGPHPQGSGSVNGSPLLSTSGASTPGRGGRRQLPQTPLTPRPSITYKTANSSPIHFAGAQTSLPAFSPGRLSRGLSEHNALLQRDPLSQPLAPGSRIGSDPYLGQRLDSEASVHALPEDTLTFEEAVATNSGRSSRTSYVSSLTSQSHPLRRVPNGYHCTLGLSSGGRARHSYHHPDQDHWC
Sequence of Human Cav 2.2 channels (P54289 25-1103 partner): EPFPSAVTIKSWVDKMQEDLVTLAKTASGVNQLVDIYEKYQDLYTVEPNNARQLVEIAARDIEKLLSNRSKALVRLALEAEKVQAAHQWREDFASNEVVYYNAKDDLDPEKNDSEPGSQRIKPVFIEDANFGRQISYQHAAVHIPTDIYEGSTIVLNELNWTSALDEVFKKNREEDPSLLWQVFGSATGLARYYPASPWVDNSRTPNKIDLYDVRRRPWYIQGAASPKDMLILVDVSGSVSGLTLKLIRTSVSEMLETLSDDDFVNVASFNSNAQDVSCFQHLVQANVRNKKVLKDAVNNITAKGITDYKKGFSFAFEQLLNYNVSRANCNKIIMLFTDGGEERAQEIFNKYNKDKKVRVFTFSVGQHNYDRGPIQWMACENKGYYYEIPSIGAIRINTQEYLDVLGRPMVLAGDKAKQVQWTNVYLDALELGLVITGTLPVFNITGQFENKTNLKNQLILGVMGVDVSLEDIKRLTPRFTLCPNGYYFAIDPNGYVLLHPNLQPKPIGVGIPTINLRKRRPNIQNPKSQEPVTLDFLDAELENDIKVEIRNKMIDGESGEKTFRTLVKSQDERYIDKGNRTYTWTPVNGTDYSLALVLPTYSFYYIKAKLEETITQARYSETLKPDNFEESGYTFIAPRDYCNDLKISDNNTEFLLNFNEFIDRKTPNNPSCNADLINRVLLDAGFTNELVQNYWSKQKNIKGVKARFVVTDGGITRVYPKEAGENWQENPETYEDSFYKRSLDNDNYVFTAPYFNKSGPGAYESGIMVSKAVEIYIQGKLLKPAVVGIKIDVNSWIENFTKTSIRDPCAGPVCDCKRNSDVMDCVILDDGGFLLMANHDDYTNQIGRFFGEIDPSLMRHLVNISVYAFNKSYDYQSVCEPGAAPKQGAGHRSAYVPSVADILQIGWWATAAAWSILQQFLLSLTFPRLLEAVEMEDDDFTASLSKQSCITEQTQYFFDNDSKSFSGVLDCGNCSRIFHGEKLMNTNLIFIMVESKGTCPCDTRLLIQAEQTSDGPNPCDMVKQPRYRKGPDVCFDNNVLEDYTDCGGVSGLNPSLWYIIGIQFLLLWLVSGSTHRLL
Sequence of Human Cav 2.2 channels (P54284 whole entry partner): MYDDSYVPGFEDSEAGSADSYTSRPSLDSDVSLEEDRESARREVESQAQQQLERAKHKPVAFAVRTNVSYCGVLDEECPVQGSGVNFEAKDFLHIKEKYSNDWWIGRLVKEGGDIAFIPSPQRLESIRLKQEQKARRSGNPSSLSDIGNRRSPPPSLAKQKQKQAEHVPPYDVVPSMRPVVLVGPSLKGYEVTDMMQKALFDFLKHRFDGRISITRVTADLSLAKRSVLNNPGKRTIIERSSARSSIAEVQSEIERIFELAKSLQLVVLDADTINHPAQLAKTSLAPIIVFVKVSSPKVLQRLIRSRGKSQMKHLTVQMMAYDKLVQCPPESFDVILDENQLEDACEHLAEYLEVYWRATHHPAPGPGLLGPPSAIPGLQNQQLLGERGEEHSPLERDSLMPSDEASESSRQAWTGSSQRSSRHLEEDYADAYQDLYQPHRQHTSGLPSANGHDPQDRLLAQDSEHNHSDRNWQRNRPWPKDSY

SMILES | IC50 (Human Cav 2.2 channels; [3]) [µM] | IC50 (Human Cav 2.2 channels; [4]) [µM] | CAv2.2 IC50 Ratio closed/inact. (Human Cav 2.2 channels) | IC50 (T-type calcium channel [1]; [5]) [µM] | IC50 (T-type calcium channel [1]; [6]) [µM] | CAv3.2 IC50 Ratio closed/inact. (T-type calcium channel [1]) | IC50 (T-type calcium channel [2]) [µM] | IC50 (CAv1.2; [7]) [µM] | IC50 (CAv1.2; [8]) [µM] | CAv1.2 IC50 Ratio closed/inact. (CAv1.2)
CC(C)S(=O)(=O)c1cc(C(F)(F)F)cnc1C(=O)N[C@H]1C[C@H](CC(C)(C)S(=O)(=O)c2cccc(C(F)(F)F)c2)C1 [Compound 716] | 6.04 | 0.22 | 27.5 | ≥ 10 | 6.84 | 1.5 | ≥ 10 | 7.76 | 6.54 | 1.2
CNC1(CC(=O)NCc2ccc(S(=O)(=O)c3cccc(C(F)(F)F)c3)cc2)CCCCC1 [Compound 660] | 3.56 | 0.61 | 5.8 | ≥ 10 | 10 | 1 | ≥ 10 | 7.48 | 4.93 | 1.5
CC(C)([C@H]1C[C@H](NC(=O)c2ccnc(C(F)(F)F)n2)C1)S(=O)(=O)c1cccc(OC(F)(F)F)c1 [Compound 635] | 2 | 0.27 | 7.4 | 7.63 | 7.84 | 1 | 6.96 | ≥ 10 | 7.63 | 1.3
CC(C)([C@H]1C[C@@H](NC(=O)c2ccc(OCC(F)(F)F)nc2)C1)S(=O)(=O)c1cccc(C(F)(F)F)c1 [Compound 582] | 2.88 | 0.19 | 15.2 | 4.35 | 1.31 | 3.3 | ≥ 10 | 5.77 | 2.06 | 2.8
CC(C)([C@H]1C[C@@H](NS(=O)(=O)c2ccc(OC(F)(F)F)cc2)C1)S(=O)(=O)c1cc(F)cc(C(F)(F)F)c1 [Compound 603] | 4.17 | 0.61 | 6.8 | ≥ 10 | 6.46 | 1.5 | 5.48 | 6.92 | 2.12 | 3.3
CC(C)([C@H]1C[C@H](NS(=O)(=O)c2ccc(Cl)c(F)c2)C1)S(=O)(=O)c1cccc(C(F)(F)F)c1 [Compound 665] | 7.26 | 0.8 | 9.1 | 3.03 | 2.66 | 1.1 | 2.77 | 8.94 | 4.21 | 2.1
CC(C)([C@H]1C[C@H](NC(=O)c2ccc(C(F)(F)F)cc2S(C)(=O)=O)C1)S(=O)(=O)c1cccc(OC(F)(F)F)c1 [Compound 636] | 10 | 0.38 | 26.3 | 4.22 | 5.44 | 0.8 | 9.97 | ≥ 10 | 5.24 | 1.9
CC(C)([C@H]1C[C@@H](NS(=O)(=O)c2ccc(F)c(C(F)(F)F)c2)C1)S(=O)(=O)c1cc(F)cc(C(F)(F)F)c1 [Compound 601] | 7.07 | 0.9 | 7.9 | ≥ 10 | 4.97 | 2 | 3.82 | 8.84 | 2.86 | 3.1
CC(C)(C1CC(CNC(=O)c2ccc(Cl)c(OC(F)(F)F)c2)C1)S(=O)(=O)c1cccc(C(F)(F)F)c1 (stereo not shown) [Compound 621] | 1.83 | 0.15 | 12.2 | 1.53 | 0.2 | 7.7 | 1.47 | 3.39 | 0.24 | 14.1
CC(C)([C@H]1C[C@@H](NC(=O)c2ccc(Cl)c(F)c2)C1)S(=O)(=O)c1cc(F)cc(C(F)(F)F)c1 [Compound 589] | 2.37 | 0.27 | 8.8 | 4.14 | 1.07 | 3.9 | 4.03 | 4.91 | 1.8 | 2.7
CC(C)([C@H]1C[C@@H](NC(=O)c2ccc(C(F)(F)F)cn2)C1)S(=O)(=O)c1cccc(C(F)(F)F)c1 [Compound 575] | 3.21 | 0.28 | 11.5 | 5.72 | 4.45 | 1.3 | ≥ 10 | 7.52 | 5.36 | 1.4
CC(C)(C[C@H]1C[C@@H](NC(=O)c2ccc(OCC(F)(F)F)nc2)C1)S(=O)(=O)c1cccc(C(F)(F)F)c1 [Compound 737] | 0.86 | 0.04 | 21.5 | 2.06 | 0.52 | 4 | 2.18 | 4.23 | 1.28 | 3.3
CC(C)([C@H]1C[C@@H](Nc2ccnc(C(F)(F)F)n2)C1)S(=O)(=O)c1cc(F)cc(C(F)(F)F)c1 [Compound 648] | 5.05 | 0.99 | 5.1 | 5.14 | 4.1 | 1.3 | 2.81 | 8.41 | 2.28 | 3.7
CC(C)(C[C@H]1C[C@@H](NC(=O)c2cnc(C(F)(F)F)nc2)C1)S(=O)(=O)c1cccc(C(F)(F)F)c1 [Compound 734] | 3.39 | 0.13 | 26.1 | 8.7 | 2.27 | 3.8 | ≥ 10 | ≥ 10 | 5.67 | 1.8
CC(C)([C@H]1C[C@@H](NC(=O)c2cc(C(F)(F)F)n[nH]2)C1)S(=O)(=O)c1cccc(OC(F)(F)F)c1 [Compound 639] | 6.16 | 0.87 | 7.1 | 2.58 | 2.55 | 1 | 2.28 | 9.31 | 3.4 | 2.7
CC(C)([C@H]1C[C@H](NC(=O)c2ccnc(C(F)(F)F)c2)C1)S(=O)(=O)c1cccc(C(F)(F)F)c1 [Compound 672] | 7.42 | 0.31 | 23.9 | 5.93 | 4.05 | 1.5 | 5.05 | ≥ 10 | 3.3 | 3
